Data published in the supplement of paper PMC8617591.

Assays:
[1] = tested on: Mycobacterium tuberculosis Erdman (autoluminescent); assay: total FIC50 (Loewe) at 50% inhibition, three-drug combination (log2); higher = more antagonistic
Protocol: (§1)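 DiaMOND equipotent three-drug combination dose responses (10 doses, 1.5- or 2-fold spacing, centred on IC90) against autoluminescent M. tuberculosis Erdman in 8 in vitro models. Read-out is OD600, or luminescence for the intracellular and dormancy models, normalised to untreated wells. Hill-fit Einf, AUC25 and GRinf are potency metrics; FIC50 and FIC90 are total Loewe fractional inhibitory concentrations as log2 (negative = synergy).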

[2] = tested on: Mycobacterium tuberculosis Erdman (autoluminescent); assay: AUC25, normalised area under dose response up to IC25 (three-drug combination) (fraction (0-1)); higher = more potent at low dose
Protocol: as §1

[3] = tested on: Mycobacterium tuberculosis Erdman (autoluminescent); assay: GRinf, maximum normalised growth rate inhibition (three-drug combination) (unitless (-1 to 1)); higher = less effect (negative = killing)
Protocol: as §1

[4] = tested on: Mycobacterium tuberculosis Erdman (autoluminescent); assay: Einf, fitted maximum growth inhibition of three-drug combination (fraction); higher = stronger maximal inhibition
Protocol: as §1

[5] = tested on: Mycobacterium tuberculosis Erdman (autoluminescent); assay: total FIC90 (Loewe) at 90% inhibition, three-drug combination (log2); higher = more antagonistic
Protocol: as §1

CC(C)/N=c1\cc2n(-c3ccc(Cl)cc3)c3ccccc3nc-2cc1Nc1ccc(Cl)cc1 [clofazimine] + NNC(=O)c1ccncc1 [isoniazid] + CC(=O)NC[C@H]1CN(c2ccc(N3CCOCC3)c(F)c2)C(=O)O1 [linezolid]
Details	AUC25, [2]	Einf, [4]	GRinf, [3]	total FIC50, [1]	total FIC90, [5]
in vitro model: acidic pH 5.7, time point: constant (~7 days, model-specific)	0.0908	0.806	-0.134	0.331	–
in vitro model: acidic pH 5.7, time point: terminal (~4-5 doublings, model-specific)	0.0672	0.939	-0.192	0.773	-0.102
in vitro model: intracellular J774, time point: constant = terminal	–	0.833	0.168	–	0.492

Details	AUC25, [2]	Einf, [4]	GRinf, [3]	total FIC50, [1]	total FIC90, [5]
in vitro model: butyrate, time point: constant (~7 days, model-specific)	0.113	0.954	-0.181	0.73	1.87
in vitro model: butyrate, time point: terminal (~4-5 doublings, model-specific)	0.0763	0.977	-0.106	0.921	1.01
in vitro model: cholesterol 0.05 mM, time point: constant (~7 days, model-specific)	0.133	0.689	-0.0122	-0.374	–
in vitro model: cholesterol 0.05 mM, time point: terminal (~4-5 doublings, model-specific)	0.141	0.902	-0.198	4.56	0.951
in vitro model: cholesterol-high 0.2 mM, time point: constant (~7 days, model-specific)	0.124	0.934	-0.48	0.36	1.56
in vitro model: cholesterol-high 0.2 mM, time point: terminal (~4-5 doublings, model-specific)	0.109	1	-0.827	0.186	0.424
in vitro model: dormancy (butyrate + nitrate, low O2), time point: constant (~7 days, model-specific)	0.0763	0.914	0.0823	1.56	1.18
in vitro model: dormancy (butyrate + nitrate, low O2), time point: terminal (~4-5 doublings, model-specific)	0.0355	0.972	-0.074	1.16	0.734
in vitro model: standard 7H9 glycerol, time point: constant = terminal	0.126	0.959	-0.237	0.207	0.757
in vitro model: valerate, time point: constant (~7 days, model-specific)	0.128	0.885	-0.0388	0.318	–
in vitro model: valerate, time point: terminal (~4-5 doublings, model-specific)	0.0875	0.934	0.0843	0.0839	1.21

CC(C)/N=c1\cc2n(-c3ccc(Cl)cc3)c3ccccc3nc-2cc1Nc1ccc(Cl)cc1 [clofazimine] + O=[N+]([O-])c1cn2c(n1)OC[C@@H](OCc1ccc(OC(F)(F)F)cc1)C2 [pretomanid] + CO[C@H]1/C=C/O[C@@]2(C)Oc3c(C)c(O)c4c(O)c(c(/C=N/N5CCN(C6CCCC6)CC5)c(O)c4c3C2=O)NC(=O)/C(C)=C\C=C\[C@H](C)[C@H](O)[C@@H](C)[C@@H](O)[C@@H](C)[C@H](OC(C)=O)[C@@H]1C [rifapentine]
Details	AUC25, [2]	Einf, [4]	GRinf, [3]	total FIC50, [1]	total FIC90, [5]
in vitro model: acidic pH 5.7, time point: constant (~7 days, model-specific)	0.103	0.899	-0.186	0.105	–
in vitro model: acidic pH 5.7, time point: terminal (~4-5 doublings, model-specific)	0.0882	0.993	-0.236	0.264	0.423
in vitro model: intracellular J774, time point: constant = terminal	–	0.989	-0.655	–	-0.198

Details	AUC25, [2]	Einf, [4]	GRinf, [3]	total FIC50, [1]	total FIC90, [5]
in vitro model: butyrate, time point: constant (~7 days, model-specific)	0.108	0.944	-0.17	0.542	0.896
in vitro model: butyrate, time point: terminal (~4-5 doublings, model-specific)	0.0902	0.978	-0.146	0.502	0.795
in vitro model: cholesterol 0.05 mM, time point: constant (~7 days, model-specific)	0.125	0.719	-0.154	1.34	–
in vitro model: cholesterol 0.05 mM, time point: terminal (~4-5 doublings, model-specific)	0.1	0.913	-0.114	1.34	1.38
in vitro model: cholesterol-high 0.2 mM, time point: constant (~7 days, model-specific)	0.101	0.93	-0.434	1.29	2.04
in vitro model: cholesterol-high 0.2 mM, time point: terminal (~4-5 doublings, model-specific)	0.104	1	-0.886	1.49	1.76
in vitro model: dormancy (butyrate + nitrate, low O2), time point: constant (~7 days, model-specific)	0.0611	0.948	-0.0911	0.0191	-1.71
in vitro model: dormancy (butyrate + nitrate, low O2), time point: terminal (~4-5 doublings, model-specific)	0.0501	0.997	-0.374	-0.0775	-0.279
in vitro model: standard 7H9 glycerol, time point: constant = terminal	0.12	0.954	-0.0887	-0.289	1.7
in vitro model: valerate, time point: constant (~7 days, model-specific)	0.155	0.893	-0.158	1.22	–
in vitro model: valerate, time point: terminal (~4-5 doublings, model-specific)	0.106	0.953	0.0119	0.552	1.7
